Experimental data from patent publication US9605041B2, “Regulatory proteins and inhibitors” (INTRA-CELLULAR THERAPIES, INC., priority 2009, dated 2017).
“Also recorded” adds a separate entry of the source.

Experiments:
[1] = biological target: T1, gSAP (Mus musculus, UniProt Q3TCV3); test: siRNA knockdown of gSAP in neuroblastoma cells overexpressing APP695, gSAP level and Aβ; assay type: cell-based
T1 construct: pulse-chase labeling of endogenous gSAP in N2a cells; endogenous in cells; host or cells: Neuroblastoma 2a cells stably overexpressing APP695
T1 sequence (Q3TCV3 738-858 limits assumed): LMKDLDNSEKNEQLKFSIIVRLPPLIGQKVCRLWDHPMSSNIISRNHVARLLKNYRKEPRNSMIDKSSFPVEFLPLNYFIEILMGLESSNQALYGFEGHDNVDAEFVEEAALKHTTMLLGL
Protocol: For cellular gSAP knockdown experiments, small interfering RNA (siRNA) of gSAP is purchased from Dharmacon Inc. The sequences of the siRNA used are as follow: sense sequence: [NT]; antisense sequence: 5'-[NT] Neuroblastoma 2a cell line stably overexpressing APP695 is transfected with siRNA using DharmaFect 2 reagent at a concentration of 50 nM following instructions provided by the manufacturer. […] To assay Aβ, the medium is removed after 48 h of transfection and replaced with Opti-MEM for 3 h incubation. Aβ is then immunoprecipitated from conditioned medium using the 4G8 antibody. Quantitation of Aβ levels in the conditioned medium is also assessed using Aβ40 and Aβ42 ELISA kits (Invitrogen). The procedures are carried out according to the manufacturer's instructions.

[2] = tested on: Aβ production; conditions: Netzer et al. 2003; cited from earlier work
[3] = biological target: T2, γ-secretase (Homo sapiens, UniProt P49768); test: In vitro γ-secretase assay, membranes from HEK293 cells with APP-β-CTF; assay type: biochemical
T2 construct: Membrane pellets are prepared from HEK293 cells transfected with APP-β-CTF (CT-100) as described above; endogenous in cells; host or cells: membranes of HEK293 cells transfected with APP-β-CTF (CT-100); gSAP-16K added from BL21 DE3 E. coli
Protocol: Membrane pellets are prepared from HEK293 cells transfected with APP-β-CTF (CT-100) as described above, and the membranes are washed with assay buffer (10 mM Hepes, 140 mM KOAc, 2.5 mM MgOAc, 0.1 mM CaCl2, 1 mM ATP, pH 7.2) and pelleted at 100,000 g for 30 min at 4° C. Recombinant gSAP-16K (aa733-854 of the human gSAP) is expressed and purified from BL21 DE3 E. coli. The membranes are resuspended in 200 μl of assay buffer with 2 μg recombinant gSAP-16K or the same amount of BSA as control. A parallel system with 1 μM L685,458 (γ-secretase inhibitor) is also used as a control. The membrane suspension is pre-incubated at 4° C. for 1 hr and then incubated for 2 hr at 37° C. to allow in vitro generation of Aβ. The membranes are solubilized in ¼ volume of 200 mM Tris, pH 7.8, 760 mM NaCl, 24 mM EDTA, 10% Triton X-100, and insoluble material is removed by centrifugation at 10,000 g for 20 min. Aβ is immunoprecipitated from the lysate using 4G8 antibody, separated on 10-20% Tris-tricine gel, transferred to PVDF membrane, and subjected to autoradiography using Kodak MR film.

[4] = biological target: PDGF receptor; test: Kinase profiling (Millipore standard assay), PDGF receptor; conditions: ATP=45 μM
[5] = biological target: T3, Abl kinase (Homo sapiens, UniProt P00519); test: Kinase profiling (Millipore standard assay), Abl kinase
T3 sequence (P00519 whole entry): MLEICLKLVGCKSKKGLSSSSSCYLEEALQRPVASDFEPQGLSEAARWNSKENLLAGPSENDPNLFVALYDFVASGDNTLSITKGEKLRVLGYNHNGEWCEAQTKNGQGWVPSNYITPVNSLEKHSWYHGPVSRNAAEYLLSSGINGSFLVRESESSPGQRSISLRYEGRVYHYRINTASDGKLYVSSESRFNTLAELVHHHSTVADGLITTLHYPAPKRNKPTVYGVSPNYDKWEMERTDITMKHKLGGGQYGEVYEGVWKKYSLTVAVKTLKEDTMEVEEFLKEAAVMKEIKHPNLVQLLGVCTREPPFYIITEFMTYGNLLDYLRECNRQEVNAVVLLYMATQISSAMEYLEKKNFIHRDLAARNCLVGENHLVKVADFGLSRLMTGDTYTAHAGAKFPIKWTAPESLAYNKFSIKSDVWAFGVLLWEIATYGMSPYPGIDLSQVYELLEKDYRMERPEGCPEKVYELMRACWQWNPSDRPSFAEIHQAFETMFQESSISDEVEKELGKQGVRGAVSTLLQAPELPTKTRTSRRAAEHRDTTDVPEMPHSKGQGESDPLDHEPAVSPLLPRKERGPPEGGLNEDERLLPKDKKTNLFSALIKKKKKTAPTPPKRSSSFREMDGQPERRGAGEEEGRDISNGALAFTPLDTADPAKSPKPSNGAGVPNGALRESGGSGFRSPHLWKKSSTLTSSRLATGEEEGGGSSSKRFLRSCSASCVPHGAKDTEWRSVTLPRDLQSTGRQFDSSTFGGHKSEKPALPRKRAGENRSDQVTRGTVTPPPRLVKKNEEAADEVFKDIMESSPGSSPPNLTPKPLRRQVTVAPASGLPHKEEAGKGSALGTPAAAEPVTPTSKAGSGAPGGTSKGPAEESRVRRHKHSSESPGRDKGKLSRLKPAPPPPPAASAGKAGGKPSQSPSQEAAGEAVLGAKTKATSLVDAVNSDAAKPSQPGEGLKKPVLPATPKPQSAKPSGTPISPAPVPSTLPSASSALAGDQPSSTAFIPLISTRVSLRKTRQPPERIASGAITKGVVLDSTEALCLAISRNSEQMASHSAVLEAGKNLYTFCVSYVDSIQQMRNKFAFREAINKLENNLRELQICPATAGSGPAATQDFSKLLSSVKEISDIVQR

[6] = tested on: Aβ production in Neuroblastoma 2a cells stably overexpressing human APP695; test: Cellular Aβ production assay, incubation with G01 (4G8 immunoprecipitation, 6E10 blot); assay type: cell-based; conditions: 10 μM, 3 hr
Protocol: Neuroblastoma 2a cells stably overexpressing human APP695 are treated with 10 μM G01 for 3 hr. Cells treated with DMSO, or DMSO plus imatinib are used as controls. After 3 hr, conditioned medium is collected and Aβ immunoprecipitation is conducted using 4G8 antibody. The immunoprecipitated Aβ is separated on 10-20% Tris-tricine gel, transferred to PVDF membrane and detected by 6E10 antibody. […]

[7] = tested on: mouse ΔE-Notch cleavage; test: ΔE-Notch cleavage in HEK293 cells incubated with test compounds; assay type: cell-based, human; conditions: 4 h incubation, DAPT positive control
Protocol: For detection of Notch cleavage, HEK293 human embryonic kidney cells are transfected with mouse ΔE-Notch cDNA with a C-terminal myc tag. For analysis of ΔE-Notch cleavage, cells are incubated with test compounds for 4 h. Cell extracts are prepared by lysing cells in cell lysis buffer (50 mM Tris, pH7.5, 10 mM NaCl, 5 mM EGTA, 1 mM EDTA and complete protease inhibitors (Roche Diagnostics, Indianapolis, Ind.). Protein concentration is determined using Bradford protein detection reagent. Volume is adjusted with cell lysis buffer, then 4× sample loading buffer (Tris-Tricine gel loading buffer) is added, samples are heated 5 min at 95° C., and equivalent amounts of cell protein for each treatment are loaded onto a 10% Bis-Tris gel. C-terminal Notch species are detected with monoclonal anti-c-myc antibody 9E10 (Roche Diagnostics) and fluorescent goat anti-mouse secondary antibody. Fluorescent antibody is quantitated via LiCor Odyssey infrared fluorescence detector.

[8] = biological target: T3, Abl kinase; test: Ki versus Abl kinase; assay type: biochemical
[9] = biological target: panel of 40 kinases; test: Panel of 40 kinases; assay type: biochemical; conditions: data not shown
[10] = tested on: Aβ in N2a cell system; test: Total human Aβ in the N2a cell system (sandwich ELISA, Western blot); assay type: cell-based
Protocol: Total human Aβ in the N2a cell system is measured in a standard sandwich ELISA by using a specific monoclonal antibody (6E10, Signet Laboratories) to capture the Aβ40 and Aβ42 and an antibody to Aβ17-24 (4G8, Signet Laboratories, Dedham, Mass.) for detection. Cell culture medium (5 μL/well) is diluted to 100 μL in phosphate-buffered saline/0.2% Tween 20 and loaded onto ELISA plates. For Western blot assays, cell medium is diluted with 2× tricine sodium dodecyl sulfate sample buffer, and heated at 95° C. for 5 min. […] Aβ is detected with antibody 4G8 and an Alexa 680-conjugated rabbit anti-mouse secondary and scanned with a LiCor Odyssey infrared scanner.

[11] = biological target: T4, gSAP (16 kDa band) (Homo sapiens, UniProt A4D1B5); test: Affinity capture on immobilized biotin-imatinib beads, silver staining; assay type: binding; conditions: HEK293 cell lysates, SDS-PAGE
T4 construct: the 16 kDa band is identified as the C-terminal domain of gSAP by MS/MS mass spectrometry; endogenous in cells; host or cells: CHAPSO-solubilized membrane extract of HEK293 cells
T4 sequence (A4D1B5 734-854 limits assumed): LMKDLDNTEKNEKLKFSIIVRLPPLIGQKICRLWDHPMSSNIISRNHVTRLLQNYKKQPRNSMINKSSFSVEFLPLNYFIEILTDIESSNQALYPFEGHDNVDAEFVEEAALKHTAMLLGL
Protocol: After cell debris is cleared by centrifugation at 1,000 g for 5 mins, the supernatant is subjected to ultracentrifugation at 100,000 g for 1 h. The membrane pellet is then solubilized on ice in 50 mM Hepes, 150 mM NaCl, 5 mM MgCl2, 5 mM CaCl2, and 1% CHAPSO containing protease inhibitors (Roche Inc. cat#04 693 132 001) for 1 h and subject to ultracentrifugation for 1 h at 100,000 g. The soluble membrane extracts are incubated with Myonen™ streptavidin T1 beads (cat#656-01, Invitrogen) containing bound active biotin-imatinib for 3 hr at 4° C. Subsequently, the beads are washed three times with lysate buffer. Bound proteins are eluted with tricine SDS-PAGE sample buffer and separated on 10-20% tris-tricine gels. For immunoblotting, the gel is then transferred to PVDF membrane and probed with γ-secretase antibodies: PS1 antibody (cat#529592) and Pen-2 antibody (cat#NE1008) are from EMD Biosciences and nicastrin antibody is from BD Transduction Laboratories (cat#612290). Silver staining is used to identify protein bands in SDS-PAGE gels. The ˜16 kDa band is excised, trypsinized, and sequenced by tandem MS/MS mass spectrometry.
Endogenous γ-secretase components are detected by specific antibodies to Nicastrin, PS1-CTF and Pen-2. Photoactivatible ^125I and ^3H-G01 are used to label membrane preparations or intact HEK293 cells, respectively. […]

[12] = biological target: T5, gSAP-16K (16 kDa band) (Homo sapiens, UniProt A4D1B5); test: In vitro and intact cell photolabeling with 125I-G01 / 3H-G01; assay type: binding; conditions: 20 nM 125I-G01 on membranes or 3H-G01 on intact cells, photolysis
T5 construct: is rapidly processed into a ˜16 kDa C-terminal fragment (gSAP-16K); endogenous in cells; host or cells: HEK293 membrane preparations (125I-G01) and intact HEK293 cells (3H-G01)
T5 sequence (A4D1B5 733-854): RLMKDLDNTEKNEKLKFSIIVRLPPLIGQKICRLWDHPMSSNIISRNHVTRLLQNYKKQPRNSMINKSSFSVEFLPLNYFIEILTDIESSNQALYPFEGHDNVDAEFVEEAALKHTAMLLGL
Protocol: For in vitro labeling, membrane pellets are prepared as described above and resuspended in 50 mM Hepes, pH 7.4, 150 mM NaCl, 5 mM MgCl2, 5 mM CaCl2. […] The bound material is eluted in SDS-tricine sample buffer and separated using 10-20% Tris-tricine gels, followed by transfer to PVDF membrane. The membrane is dried and exposed to Kodak MS film for autoradiography. For intact cell labeling, human embryonic kidney cells (HEK293) grown to ˜80% confluency (˜10^7 cells) are incubated with 0.1 μM ^3H-G01 in Opti-MEM for 2 hours in an incubator at 37° C., with 5% CO2 before being transferred to ice for an additional hour. Medium is removed and cells are washed twice with cold phosphate buffered saline (PBS), pH 7.4. […] The immunoprecipitate is washed 3 times with lysis buffer. The immuno-purified (IP) material is eluted with SDS sample buffer and product is separated using a 10-20% Tris-Tricine SDS-PAGE gel, transferred to PVDF membrane, and the membrane dried and exposed to Kodak MS film for autoradiography.
Endogenous γ-secretase components are detected by specific antibodies to Nicastrin, PS1-CTF and Pen-2. […] After lysis and immunoprecipitation with PS1 antibody, bound proteins are separated by 10-20% Tris-tricine SDS-PAGE.
Intact N2a cell labeling is performed by incubation with ^3H-G01. Cells are lysed with RIPA buffer and proteins were immunoprecipitated with gSAP antibody.

Molecule: Cc1ccc(NC(=O)c2ccc(CN3CCN(C)CC3)cc2)cc1Nc1nccc(-c2cccnc2)n1 [imatinib, reference compound]
- additional effect of imatinib on Aβ levels under gSAP siRNA knockdown [1]: not additive; also recorded: little or no additional effect
- production of Aβ [2]: inhibits production of Aβ

Molecule: CC(C)C[C@H](NC(=O)[C@H](Cc1ccccc1)C[C@@H](O)[C@H](Cc1ccccc1)NC(=O)OC(C)(C)C)C(=O)N[C@@H](Cc1ccccc1)C(N)=O [L685,458, reference compound]
- Aβ production in the in vitro γ-secretase assay ([3]; 1 μM): abolishes Aβ production

Molecule: Cc1ccc(NC(=O)c2ccc(CN3CCN(CCNC(=O)CCCC[C@@H]4SC[C@@H]5NC(=O)N[C@@H]54)CC3)cc2)cc1Nc1nccc(-c2cccnc2)n1 [IC339239]
- IC50 ([4]; read-out: IC50 against PDGF receptor): 6.6 µM
- IC50 [5]: 0.146 µM

Molecule: Cc1ccc(NC(=O)c2ccc(N=[N+]=[N-])cc2O)cc1Nc1nccc(-c2cccnc2)n1 [G01, 4-azido-2-hydroxy-N-(4-methyl-3-(4-(pyridin-3-yl)pyrimidin-2-ylamino)phenyl)benzamide]
- Aβ in conditioned medium compared to DMSO vehicle [6]: significantly reduces Aβ

Molecule: Cc1ncc(NC(=O)c2ccc(CC3CCN(C)CC3)cc2)cc1Nc1nccc(-c2ccccc2)n1 [N-(6-methyl-5-(4-phenylpyrimidin-2-ylamino)pyridin-3-yl)-4-((1-methylpiperidin-4-yl)methyl)benzamide]
- influence on NOTCH metabolism [7]: do not influence NOTCH metabolism
- Ki [8]: ~12 µM
- weaker activity versus Abl kinase compared to imatinib [8]: 100 fold
- kinase inhibitory activity against a panel of 40 kinases [9]: little kinase inhibitory activity
- concentrations that significantly lower Aβ [10]: < 500 nM

Molecule: Cc1ccc(NC(=O)c2ccc(CN3CCN(C(=O)CCCC[C@@H]4SC[C@@H]5NC(=O)N[C@@H]54)CC3)cc2)cc1Nc1nccc(-c2cccnc2)n1 [IC200001]
- inhibitory activity toward PDGF receptor [4]: no significant inhibitory activity
- binding of the ~16 kDa band (gSAP) to the immobilized compound [11]: does not bind
- inhibitory activity toward Abl kinase ([5]; ATP=45 μM): no significant inhibitory activity

Molecule: Cc1ccc(NC(=O)c2ccc(N=[N+]=[N-])cc2O)cc1Nc1nccc(-c2cccnc2)n1 [^3H-G01]
- photolabeling of the 16 kDa protein (gSAP-16K) [12]: specifically labeled

Molecule: siRNA: siRNA of gSAP, sense AUGCAGAGCUGGACGACAUUU, antisense 5′-P.AUGUCGUCCAGCUCUGCAUUU (5'-phosphate on antisense, further chemistry not given here)
- decrease of the level of Aβ ([1]; gSAP siRNA knockdown): about 50%
- reduction of gSAP level ([1]; siRNA 50 nM): 72±15%

B1: gSAP-16K: recombinant 16 kDa C-terminal fragment, aa 733-854 of human gSAP, expressed in E. coli (protein, UniProt A4D1B5 733-854, looked up, fragment)
chain: T5 sequence (A4D1B5 733-854)
- stimulation of Aβ production ([3]; 2 μg recombinant gSAP-16K added to membranes, BSA control): 2.4±0.3 fold
